From article PMC6900491, “The LRRC8 volume‐regulated anion channel inhibitor, DCPIB, inhibits mitochondrial respiration independently of the channel” (Physiological Reports, 2019)

Molecular target: T1, LRRC8A (volume-regulated anion channel, VRAC) (Homo sapiens, UniProt Q8IWT6)
T1 construct: endogenous VRAC in WT HAP-1 and HEK-293 cells (current absent in LRRC8A-KO cells); with at least one other LRRC8 subunit (LRRC8B, C, D or E)
T1 sequence (Q8IWT6 1-810): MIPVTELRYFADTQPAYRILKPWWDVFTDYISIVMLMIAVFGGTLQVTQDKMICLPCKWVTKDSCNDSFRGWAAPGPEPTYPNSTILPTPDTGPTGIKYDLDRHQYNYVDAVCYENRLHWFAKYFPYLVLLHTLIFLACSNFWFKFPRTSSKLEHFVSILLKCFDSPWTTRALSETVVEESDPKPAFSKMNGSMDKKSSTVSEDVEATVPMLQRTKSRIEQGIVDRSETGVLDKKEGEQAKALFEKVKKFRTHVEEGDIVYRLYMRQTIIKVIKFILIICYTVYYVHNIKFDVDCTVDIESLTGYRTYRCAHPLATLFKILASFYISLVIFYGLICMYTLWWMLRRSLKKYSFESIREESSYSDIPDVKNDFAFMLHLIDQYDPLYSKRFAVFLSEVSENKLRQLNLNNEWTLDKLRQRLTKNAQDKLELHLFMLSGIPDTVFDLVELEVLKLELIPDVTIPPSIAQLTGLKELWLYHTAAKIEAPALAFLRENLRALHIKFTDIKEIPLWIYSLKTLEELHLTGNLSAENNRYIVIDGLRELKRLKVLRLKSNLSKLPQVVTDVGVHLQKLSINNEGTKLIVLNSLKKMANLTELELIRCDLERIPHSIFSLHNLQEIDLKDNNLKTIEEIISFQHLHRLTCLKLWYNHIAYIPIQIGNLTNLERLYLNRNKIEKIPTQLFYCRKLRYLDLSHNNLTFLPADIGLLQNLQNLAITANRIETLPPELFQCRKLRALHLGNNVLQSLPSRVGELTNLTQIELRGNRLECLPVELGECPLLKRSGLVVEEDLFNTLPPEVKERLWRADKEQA
Experiment: whole-cell patch clamp of swelling-induced anion current, WT vs LRRC8A-KO cells
Assay type: cell-based

CCCCC1(C2CCCC2)Cc2cc(OCCCC(=O)O)c(Cl)c(Cl)c2C1=O (stereo not shown) [DCPIB, 4‐(2‐butyl‐6,7‐dichloro‐2‐cyclopentylindan‐1‐on‐5‐yl) oxybutyric acid]
whole-cell patch clamp of swelling-induced anion current, WT vs LRRC8A-KO cells: 10 µM
